Laboratory results reported in ChEMBL document CHEMBL3779821, “On the enthalpic preference of fragment binding” (Medchemcomm, 2016).

Target: Macrophage metalloelastase (Homo sapiens, UniProt P39900)
Experiment: Binding affinity to MMP12 (unknown origin)

Macrophage metalloelastase, sequence (P39900 whole entry): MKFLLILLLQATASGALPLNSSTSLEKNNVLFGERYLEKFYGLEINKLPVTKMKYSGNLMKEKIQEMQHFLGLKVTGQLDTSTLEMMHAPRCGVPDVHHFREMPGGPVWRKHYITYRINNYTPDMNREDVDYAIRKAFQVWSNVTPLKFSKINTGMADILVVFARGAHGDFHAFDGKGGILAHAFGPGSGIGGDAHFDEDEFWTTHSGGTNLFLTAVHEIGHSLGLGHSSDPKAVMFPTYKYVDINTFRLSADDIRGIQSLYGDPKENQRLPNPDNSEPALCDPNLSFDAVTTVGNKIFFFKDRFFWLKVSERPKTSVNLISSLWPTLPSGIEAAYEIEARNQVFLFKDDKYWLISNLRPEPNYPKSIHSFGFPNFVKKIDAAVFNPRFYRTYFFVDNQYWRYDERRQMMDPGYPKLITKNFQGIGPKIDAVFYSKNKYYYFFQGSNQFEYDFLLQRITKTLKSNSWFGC

Kd [mM] | SMILES
6.11e-05 | O=C(CNS(=O)(=O)c1ccccc1)NO
6.18 | CC(=O)NO [ACETOHYDROXAMIC ACID]
